As a reminder, the pIC50 is the IC50 on a negative log10 scale, so that one unit is a factor of ten. High values mean a low IC50, low ones a high IC50.

Assay [1] addresses JAK1 (Homo sapiens, UniProt P23458). Description: ADP-Glo kinase inhibition assay, JAK1.
Excerpt: (§1) A drug screening system based on kinases JAK1, JAK2, JAK3, and TYK2 was used to detect the inhibitory ability of small molecule compounds on kinase activity. A kinase undergoes an enzymatic reaction with its substrates IRS1, IGF1Rtide, and Poly (4:1 Glu, Tyr), consuming ATP to produce ADP, wherein the ADP-Glo reagent and luminescence method were used to detect the amount of the product to reflect the activity of the kinase.
(§2) For TYK2 inhibition activity testing, the starting concentration was 10 μM with 1:4 serial dilution. Test compounds were used at a starting concentration of 0.5 μM with 1:4 serial dilution.
(§3) Transfer 4 μL of ADP-Glo reagent to the 384-well plate, which was centrifuged at 1000 rpm for 1 minute, and incubated at 25° C. for 40 minutes.
(§4) Transfer 8 μL of the test solution to the 384-well plate, which was centrifuged at 1000 rpm for 1 minute, and incubated at 25° C. for 40 minutes.
(§5) Read luminescence signals using a multimode microplate reader.
(§6) [formula] • Negative Control: DMSO • Positive Control: Tofacitinib
(§7) The following nonlinear regression equation was used to determine the compound's IC50(half-maximal inhibitory concentration). Data analysis was performed using GraphPad Prism 7.0 software.
(§8) [formula] • X: Logarithm of compound concentration; and Y: Inhibition rate (% Inhibition)
In assay [2] the target is JAK2 (Homo sapiens, UniProt O60674). Description: ADP-Glo kinase inhibition assay, JAK2. For orientation: In ADP-Glo the light output rises with the ADP produced.
Excerpt: as §1, §2, §3, §4, §5, §6, §7, §8
In assay [3] the target is JAK3 (Homo sapiens, UniProt P52333). Briefly: ADP-Glo kinase inhibition assay, JAK3.
Excerpt: as §1, §2, §3, §4, §5, §6, §7, §8
Assay [4] addresses T1, TYK2 (Homo sapiens, UniProt P29597).
T1 sequence (P29597 897-1187 limits assumed): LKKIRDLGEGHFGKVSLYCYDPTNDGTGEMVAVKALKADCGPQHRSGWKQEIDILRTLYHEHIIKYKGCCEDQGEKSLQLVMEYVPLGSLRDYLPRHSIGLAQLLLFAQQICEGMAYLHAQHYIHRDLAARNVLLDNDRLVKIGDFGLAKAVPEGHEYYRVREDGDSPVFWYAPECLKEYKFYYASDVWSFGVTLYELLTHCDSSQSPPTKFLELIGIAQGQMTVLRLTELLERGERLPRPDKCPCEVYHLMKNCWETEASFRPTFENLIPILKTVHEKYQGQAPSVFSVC
Briefly: ADP-Glo kinase inhibition assay, TYK2.
Excerpt: as §1, §2, §3, §4, §5, §6, §7, §8

Assay [5] relates to itching caused by allergic dermatitis. The following applies: dogs, cited from earlier work.

pIC50: −log10 of the molar value.

JAK1, sequence (P23458 850-1154 limits assumed): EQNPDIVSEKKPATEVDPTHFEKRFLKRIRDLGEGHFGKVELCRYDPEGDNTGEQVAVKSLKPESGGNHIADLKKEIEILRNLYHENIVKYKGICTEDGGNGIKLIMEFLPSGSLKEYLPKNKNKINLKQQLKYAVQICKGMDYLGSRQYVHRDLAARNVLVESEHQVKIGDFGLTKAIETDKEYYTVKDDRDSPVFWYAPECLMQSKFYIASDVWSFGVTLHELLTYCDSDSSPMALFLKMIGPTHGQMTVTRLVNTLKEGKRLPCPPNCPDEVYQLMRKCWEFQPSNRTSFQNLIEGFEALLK
JAK3, sequence (P52333 795-1124 limits assumed): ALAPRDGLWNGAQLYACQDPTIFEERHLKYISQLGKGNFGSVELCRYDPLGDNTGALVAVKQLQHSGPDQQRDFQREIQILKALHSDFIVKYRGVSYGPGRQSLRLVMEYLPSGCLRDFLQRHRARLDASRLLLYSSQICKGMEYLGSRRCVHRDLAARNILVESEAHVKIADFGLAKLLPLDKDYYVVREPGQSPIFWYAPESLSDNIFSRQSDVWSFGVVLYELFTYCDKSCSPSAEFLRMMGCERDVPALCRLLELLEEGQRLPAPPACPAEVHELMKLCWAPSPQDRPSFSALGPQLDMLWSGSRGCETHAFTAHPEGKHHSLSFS
JAK2, sequence (O60674 826-1132 limits assumed): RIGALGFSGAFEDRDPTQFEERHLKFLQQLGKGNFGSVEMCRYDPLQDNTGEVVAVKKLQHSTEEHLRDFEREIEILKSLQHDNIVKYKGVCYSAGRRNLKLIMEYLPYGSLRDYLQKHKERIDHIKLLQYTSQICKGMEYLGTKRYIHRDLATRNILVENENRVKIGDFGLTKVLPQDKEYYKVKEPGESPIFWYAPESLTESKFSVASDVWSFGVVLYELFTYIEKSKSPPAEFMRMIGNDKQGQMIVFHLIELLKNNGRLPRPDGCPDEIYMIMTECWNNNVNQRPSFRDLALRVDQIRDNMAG

With `[2H]C([2H])([2H])c1cc(O)c(F)cc1-c1ccc2c(-c3nc4c([nH]3)CN(CC(C)O)C4)n[nH]c2c1` (stereo in doubt) [Compound 28], the pIC50 in assay [1] was 9.37; in assay [2], 10.30; in assay [3], 9.00; in assay [4], 8.19.

As for `[2H]C([2H])([2H])c1cc(O)c(F)cc1-c1ccc2c(-c3nc4c([nH]3)CN(C(=O)NC[C@@H](C)O)C4)n[nH]c2c1` [Compound 1, (R)-2-(6-(5-Fluoro-4-hydroxy-2-(methyl-d3)phenyl)-1H-indazol-3-yl)-N-(2-hydroxypropyl)-4,6-dihydropyrrolo[3,4-d]imidazole-5(1H)-carboxamide], the pIC50 in assay [1] was 10.02; in assay [2], 10.89; in assay [3], 9.70; in assay [4], 9.10.

On to `[2H]C([2H])([2H])c1cc(O)c(F)cc1-c1ccc2c(-c3nc4c([nH]3)CN(C(=O)C3CC3)C4)n[nH]c2c1` [Compound 2, Cyclopropyl (2-(6-(5-fluoro-4-hydroxy-2-(methyl-d3)phenyl)-1H-indazol-3-yl)-4,6-dihydropyrrolo[3,4-d]imidazol-5(1H)-yl) ketone], for which the pIC50 in assay [1] was 9.72; in assay [2] it was 10.77; in assay [3] it was 9.55; in assay [4] it was 8.92.

`[2H]C([2H])([2H])C([2H])([2H])c1cc(O)c(F)cc1-c1ccc2c(-c3nc4c([nH]3)CN(C(=O)N3CC[C@H](O)C3)C4)n[nH]c2c1` [Compound 3, (S)-(2-(6-(2-(Ethyl-d5)-5-fluoro-4-hydroxyphenyl)-1H-indazol-3-yl)-4,6-dihydropyrrolo[3,4-d]imidazol-5(1H)-yl) (3-hydroxypyrrolidin-1-yl) ketone methanesulfonate]: the pIC50 in assay [1] is 11.14; in assay [2], 10.82; in assay [3] it was 10.36; in assay [4] it was 10.66.

With `[2H]C([2H])([2H])c1cc(O)c(F)cc1-c1ccc2c(-c3nc4c([nH]3)CN(C(=O)NC[C@H](C)O)C4)n[nH]c2c1` [Compound 4, (S)-2-(6-(5-Fluoro-4-hydroxy-2-(methyl-d3)phenyl)-1H-indazol-3-yl)-N-(2-hydroxypropyl)-4,6-dihydropyrrolo[3,4-d]imidazole-5(1H)-carboxamide], the pIC50 in assay [1] was 10.00; in assay [2], 10.82; in assay [3], 9.59; in assay [4] it was 9.00.

Consider `[2H]C([2H])([2H])c1cc(O)c(F)cc1-c1ccc2c(-c3nc4c([nH]3)CN(C(=O)NCC(C)O)C4)n[nH]c2c1` (stereo not shown) [Compound 5, 2-(6-(5-Fluoro-4-hydroxy-2-(methyl-d3)phenyl)-1H-indazol-3-yl)-N-(2-hydroxypropyl)-4,6-dihydro-pyrrolo[3,4-d]imidazole-5(1H)-carboxamide], for which the pIC50 in assay [1] was 9.70; in assay [2], 11.00; in assay [3], 9.52; in assay [4] it was 8.80.

Consider `[2H]C([2H])([2H])c1cc(O)c(F)cc1-c1ccc2c(-c3nc4c([nH]3)CN(C(=O)N3CC[C@H](O)C3)C4)n[nH]c2c1` [Compound 6, (S)-(2-(6-(5-Fluoro-4-hydroxy-2-(methyl-d3)phenyl)-1H-indazol-3-yl)-4,6-dihydropyrrolo[3,4-d]imidazole-5(1H)-yl)(3-hydroxypyrrolidin-1-yl)ketone], for which the pIC50 is 10.07 in assay [1], 10.89 in assay [2], 9.72 in assay [3] and 9.49 in assay [4].

For the molecule `[2H]C([2H])([2H])c1cc(O)c(F)cc1-c1ccc2c(-c3nc4c([nH]3)CN(C(=O)NCCCO)C4)n[nH]c2c1` [Compound 7, 2-(6-(5-Fluoro-4-hydroxy-2-(methyl-d3)phenyl)-1H-indazol-3-yl)-N-(3-hydroxypropyl)-4,6-dihydropyrrolo[3,4-d]imidazole-5(1H)-carboxamide], the pIC50 is 10.15 in assay [1], 10.85 in assay [2], 9.60 in assay [3] and 9.28 in assay [4].

`[2H]C([2H])([2H])c1cc(O)c(F)cc1-c1ccc2c(-c3nc4c([nH]3)CN(C(=O)N3CC[C@@H](O)C3)C4)n[nH]c2c1` [Compound 8, (R)-(2-(6-(5-Fluoro-4-hydroxy-2-(methyl-d3)phenyl)-1H-indazol-3-yl)-4,6-dihydropyrrolo[3,4-d]imidazole-5(1H)-yl)(3-hydroxypyrrolidin-1-yl)ketone]: the pIC50 was 10.35 in assay [1], 11.40 in assay [2], 9.80 in assay [3] and 9.72 in assay [4].

For `[2H]C([2H])([2H])c1cc(O)c(F)cc1-c1ccc2c(-c3nc4c([nH]3)CN(C(=O)N(C)C)C4)n[nH]c2c1` [Compound 9, 2-(6-(5-Fluoro-4-hydroxy-2-(methyl-d3)phenyl)-1H-indazol-3-yl)-N,N-dimethyl-4,6-dihydropyrrolo[3,4-d]imidazole-5(1H)-carboxamide], the pIC50 in assay [1] is 10.15; in assay [2] it was 11.10; in assay [3], 9.49; in assay [4] it was 9.37.

Consider `[2H]C([2H])([2H])c1cc(O)c(F)cc1-c1ccc2c(-c3nc4c([nH]3)CN(C(=O)N3CCOCC3)C4)n[nH]c2c1` [Compound 10], for which the pIC50 is 10.04 in assay [1], 11.01 in assay [2], 9.52 in assay [3] and 9.43 in assay [4].

`[2H]C([2H])([2H])c1cc(O)c(F)cc1-c1ccc2c(-c3nc4c([nH]3)CN(C)C4)n[nH]c2c1` [Compound 12, 2-Fluoro-5-(methyl-d3)-4-(3-(5-methyl-1,4,5,6-tetrahydropyrrolo[3,4-d]imidazol-2-yl)-1H-indazol-6-yl)phenol]: the pIC50 in assay [1] was 8.74.

Regarding `[2H]C([2H])([2H])c1cc(O)c(F)cc1-c1ccc2c(-c3nc4c([nH]3)CN(C(=O)NC)C4)n[nH]c2c1` [Compound 13], the pIC50 in assay [1] is 10.11; in assay [2], 10.92; in assay [3], 9.66; in assay [4], 9.37.

As to `[2H]C([2H])([2H])c1cc(O)c(F)cc1-c1ccc2c(-c3nc4c([nH]3)CN(C(=O)OC)C4)n[nH]c2c1` [Compound 18], the pIC50 in assay [2] is 9.21.

For the molecule `[2H]C([2H])([2H])c1cc(O)c(F)cc1-c1ccc2c(-c3nc4c([nH]3)CN(C(=O)N3CCC(O)CC3)C4)n[nH]c2c1` [Compound 19], the pIC50 in assay [1] is 10.49; in assay [2] it was 11.30; in assay [3], 9.74; in assay [4], 9.52.

Regarding `[2H]C([2H])([2H])C([2H])([2H])c1cc(O)c(F)cc1-c1ccc2c(-c3nc4c([nH]3)CN(C(=O)N(C)C)C4)n[nH]c2c1` [Compound 32], the negative-log IC50 (pIC50) in assay [1] is 10.60; in assay [2], 10.49; in assay [3], 9.70; in assay [4] it was 9.52.

In the case of `[2H]C([2H])([2H])C([2H])([2H])c1cc(O)c(F)cc1-c1ccc2c(-c3nc4c([nH]3)CN(C(=O)N3CC[C@@H](O)C3)C4)n[nH]c2c1` [Compound 35], the pIC50 was 11.12 in assay [1], 11.06 in assay [2], 10.02 in assay [3] and 10.07 in assay [4].

With `CNS(=O)(=O)C[C@H]1CC[C@H](N(C)c2ncnc3[nH]ccc23)CC1` [Olatinib], in assay [5] (on the 7th day), the “experimental animals that alleviated the itching response by more than 50%” value is recorded as “more than 70%”. Also, the “time to relieve itching” value in assay [5] (oral 0.4-0.6 mg/kg twice a day) was no more than 24 h.

The values are drawn from patent publication US20260166012A1 (MEDINNO PHARMACEUTICAL TECHNOLOGY (ZHUHAI) CO., LTD., priority 2023, published 2026).
